Data taken from patent US20080176932A1, “Pharmaceutical Compositions Containing Baicalein And Baicalin With Synergistic Effect In Tumor Treatment” (priority 2005, published 2008).
Read-outs that look alike come from different tables or passages of the source.

Legend:
[1] = test system: Murine melanoma cell line B 16; experiment: Solid tumor transplant model, baicalein and scutellarin; assay type: in vivo, C57BL/6 female mice; conditions: for Final Tumor WT. (g) Mean ± SD / Tumor Growth Inhibition %: day 15
Method: C57BL/6 female mice (weight approximately 20 g) were used in this study. Murine melanoma cell line B 16 cells, 2×10^6 tumor cells were implanted s.c. into the armpit of each mice after two passenges in vitro cultured. On the next day after implantation, mice were randomly grouped at 10 per group and received 0.1ml/10 g weight of the drugs. […] The number of mice of each group was 10. Mice were weighed before and post the treatment. Animals were killed on day 15, and the tumors were removed and weighted.

[2] = test system: Murine melanoma cell line B 16; experiment: Solid tumor transplant model, baicalein and baicalin; assay type: in vivo
Method: C57BL/6 female mice (weight approximately 20 g) were used in this study. Murine melanoma cell line B 16 cells, 2×10^6 tumor cells were implanted s.c. into the armpit of each mice after two passenges in vitro cultured. On the next day after implantation, mice were randomly grouped at 10 per group and received 0.1 ml/10 g weight of the drugs. […] The number of mice of each group was 10. Mice were weighed before and post the treatment. Animals were killed on day 15, and the tumors were removed and weighted.

L1210 cells [3] = assay type: in vivo; conditions: 5-FU 10 mg/kg s.c., day 1-10
Method: (§1) L1210 cells on the growth phase were injected at 1×10^5 cells via I.P. into BDF1 female mice (weight approximately 20 g). The next day of implantation, mice were grouped, and received an injection of 0.1 ml/10 g weight of the drug. […] The number of mice of each group was 10. Mice were weighed before and after the treatment. Survival time of each mouse was recorded. The results of changes in increasing of life span of mice were used in assessment of response. The increase of life span was determined as; increase of life span rate=(median survival time of treated animals/median survival time of control animals−1)×100%, the data were analyzed by t-test.

L1210 cells [4] = assay type: in vivo; conditions: day 1-10; for ILS(%) increase of life span: L1210 mice
Method: as §1

[5] = test system: Human gastric cancer cell line MKN28; experiment: MTT growth inhibition, baicalein and scutellarin single or combination; assay type: cell-based
[6] = test system: Human hung cancer cell line A549; experiment: as above; assay type: cell-based
[7] = test system: Human colon cancer cell line HCT116; experiment: as above; assay type: cell-based
[8] = test system: Human leukemia cell line HL60; experiment: as above; assay type: cell-based
[9] = test system: human liver cancer cell line HepG2; experiment: as above; assay type: cell-based
[10] = test system: Human esophagus cancer cell line TE2; experiment: as above; assay type: cell-based
Method: (§2) Cells were seeded onto 96-well plate at 5×10^3 cells/well, and grown in culture medium containing 10% fetal bovine serum (FBS). […] The viable cell growth was determined by MTT assay after 72-h continuous exposure.
(§3) A CI below 1 is an indication of synergy, while a CI equal to 1 represents addition, and a CI above 1 indicates antagonism.

[11] = test system: Human prostate cancer cell line PC3; experiment: as above; assay type: cell-based
Method: as §2, §3

[12] = test system: Human breast cancer cell line MCF-7; experiment: as above; assay type: cell-based
Method: as §2, §3

[13] = B16 mice, 5-FU 10 mg/kg s.c., day 1-10
[14] = female, C57BL/6, mouse, in vivo, 15 days
[15] = B16 mice, day 15, 5-FU 10 mg/kg s.c., day 1-10
[16] = B16 mice, Sc 25 mg/kg i.p., day 1-10
[17] = B16 mice, Sc 50 mg/kg i.p., day 1-10
[18] = B16 mice, Sc 100 mg/kg i.p., day 1-10
[19] = B16 mice, Sc 200 mg/kg i.p., day 1-10

## O=c1[nH]cc(F)c(=O)[nH]1 [5-FU, 5-fluorouracil, reference compound]
[1]; [13]
  Final Tumor WT. (g) Mean ± SD: 1.35 ± 0.1 g
  Tumor Growth Inhibition %: 38%
[1]; [14]
  Number of mice through 15 days/total number: 10/10
[2]; [15]
  Final Tumor WT. (g) Mean ± SD: 1.35 ± 0.1 g
  Tumor Growth Inhibition %: 38%
[2]; [13]
  Weight Change %: <5%
[2]; [14]
  Number of mice Surviving through 15 days/total number: 10/10
L1210 cells [3]
  Number of mice Surviving through 15 days/total number: 10/10
L1210 cells [3]; L1210 mice
  ILS(%) increase of life span: 79%
L1210 cells [4]; 5-FU 10 mg/kg s.c.
  Number of mice Through surviving 15 days/total number: 10/10
  ILS(%) increase of life span: 79%

## O=C(O)[C@H]1O[C@@H](Oc2cc3oc(-c4ccc(O)cc4)cc(=O)c3c(O)c2O)[C@H](O)[C@@H](O)[C@@H]1O [Sc, scutellarin]
[1]; [16]
  Final Tumor WT. (g) Mean ± SD: 1.81 ± 0.11 g
  Tumor Growth Inhibition %: 17%
  Number of mice through 15 days/total number: 10/10
  Weight Change %: <5%
[1]; [17]
  Final Tumor WT. (g) Mean ± SD: 1.72 ± 0.08 g
  Tumor Growth Inhibition %: 21.1%
  Number of mice through 15 days/total number: 10/10
  Weight Change %: <5%
[1]; [18]
  Final Tumor WT. (g) Mean ± SD: 1.48 ± 0.12 g
  Tumor Growth Inhibition %: 32.1%
  Number of mice through 15 days/total number: 10/10
  Weight Change %: <5%
[1]; [19]
  Final Tumor WT. (g) Mean ± SD: 1.22 ± 0.09 g
  Tumor Growth Inhibition %: 44%
  Number of mice through 15 days/total number: 10/10
  Weight Change %: <5%
[5]; single dose 2.5 μm
  Inhibition of cell growth (%): 18.83 ± 2.2%
[5]; single dose 5 μm
  Inhibition of cell growth (%): 21.23 ± 3.5%
[5]; single dose 10 μm
  Inhibition of cell growth (%): 31.65 ± 2.8%
[5]; single dose 20 μm
  Inhibition of cell growth (%): 35.34 ± 2.8%
[5]; single dose 40 μm
  Inhibition of cell growth (%): 75.34 ± 2.7%
[6]; single dose 2.5 μm
  Inhibition of cell growth (%): 1 ± 2.1%
[6]; single dose 5 μm
  Inhibition of cell growth (%): 7.7 ± 3.3%
[6]; single dose 10 μm
  Inhibition of cell growth (%): 32.33 ± 2.7%
[6]; single dose 20 μm
  Inhibition of cell growth (%): 62.65 ± 2.5%
[6]; single dose 40 μm
  Inhibition of cell growth (%): 91 ± 2.7%
[7]; single dose 2.5 μm
  Inhibition of cell growth (%): 10.05 ± 2.5%
[7]; single dose 5 μm
  Inhibition of cell growth (%): 15.1 ± 3%
[7]; single dose 10 μm
  Inhibition of cell growth (%): 49 ± 2.2%
[7]; single dose 20 μm
  Inhibition of cell growth (%): 83.7 ± 2.2%
[7]; single dose 40 μm
  Inhibition of cell growth (%): 95 ± 2.8%
[8]; single dose 2.5 μm
  Inhibition of cell growth (%): 2.25 ± 2.7%
[8]; single dose 5 μm
  Inhibition of cell growth (%): 8.64 ± 3.2%
[8]; single dose 10 μm
  Inhibition of cell growth (%): 37 ± 2.2%
[8]; single dose 20 μm
  Inhibition of cell growth (%): 64.2 ± 2.7%
[8]; single dose 40 μm
  Inhibition of cell growth (%): 88.5 ± 2.5%
[9]; single dose 2.5 μm
  Inhibition of cell growth (%): 5.2 ± 2.1%
[9]; single dose 5 μm
  Inhibition of cell growth (%): 7.7 ± 2.3%
[9]; single dose 10 μm
  Inhibition of cell growth (%): 43.35 ± 2.7%
[9]; single dose 20 μm
  Inhibition of cell growth (%): 86.1 ± 2.9%
[9]; single dose 40 μm
  Inhibition of cell growth (%): 88.45 ± 2.5%
[10]; single dose 2.5 μm
  Inhibition of cell growth (%): 4.7 ± 2.2%
[10]; single dose 5 μm
  Inhibition of cell growth (%): 12.97 ± 3.1%
[10]; single dose 10 μm
  Inhibition of cell growth (%): 27.1 ± 2.7%
[10]; single dose 20 μm
  Inhibition of cell growth (%): 66 ± 2.9%
[10]; single dose 40 μm
  Inhibition of cell growth (%): 84.62 ± 2.5%
[11]; single dose 2.5 μm
  Inhibition of cell growth (%): 2 ± 5%
[11]; single dose 5 μm
  Inhibition of cell growth (%): 18 ± 3%
[11]; single dose 10 μm
  Inhibition of cell growth (%): 39 ± 7%
[11]; single dose 20 μm
  Inhibition of cell growth (%): 72 ± 9%
[11]; single dose 40 μm
  Inhibition of cell growth (%): 91.8 ± 5%
[12]; single dose 2.5 μm
  Inhibition of cell growth (%): 5 ± 2.5%
[12]; single dose 5 μm
  Inhibition of cell growth (%): 20.71 ± 3.2%
[12]; single dose 10 μm
  Inhibition of cell growth (%): 71 ± 2.2%
[12]; single dose 20 μm
  Inhibition of cell growth (%): 87.5 ± 2.5%
[12]; single dose 40 μm
  Inhibition of cell growth (%): 95.57 ± 2.2%
L1210 cells [4]; Sc 25 mg/kg i.p.
  ILS(%) increase of life span: 11.9%
  Number of mice Through surviving 15 days/total number: 10/10
L1210 cells [4]; Sc 50 mg/kg i.p.
  ILS(%) increase of life span: 26%
  Number of mice Through surviving 15 days/total number: 10/10
L1210 cells [4]; Sc 100 mg/kg i.p.
  ILS(%) increase of life span: 37%
  Number of mice Through surviving 15 days/total number: 10/10
L1210 cells [4]; Sc 200 mg/kg i.p.
  ILS(%) increase of life span: 51%
  Number of mice Through surviving 15 days/total number: 10/10
